US20140243395A1, “SPRAY SYSTEM FOR PRODUCTION OF A MATRIX FORMED IN SITU” (ETHRIS GMBH, priority 2011, published 2014)

Assays:
[1] = viscosity of solvents, rotational viscometer; format: physicochemical; details: 25° C.
mouse = details: i.v., 20% solution; cited from earlier work
rat = details: i.v., 40% DMI in isotonic saline solution (v/v); cited from earlier work
[2] = solubility of PLGA in the solvent, Matschke et al. 2002; cited from earlier work
[3] = in vivo; cited from earlier work
mesothelial cells = details: human
Procedure: In addition to 10% fetal calf serum (PPA Laboratories, Austria) an epidermal growth factor (5 ng/ml, Sigma-Aldrich, Germany) and hydrocortisone (400 ng/ml, Sigma-Aldrich, Germany) were added to the medium. Furthermore, the cells were passaged at a confluence of about 80% and used for tests up to a passage of 20.
The cytotoxicity of the solvent was determined by an ATP-based assay (ATPlite, Perkin Elmer). […] After the incubation period, the medium was sucked off, the cells were washed once with PBS, 50 μl PBS per well was added, and the cell viability was determined according to the manufacturer's instructions. […] For each point in time, the concentration of the solvent was plotted against the measured cell viability (mean values±standard deviation from n=4 runs) and a non-linear standard function was adapted: […]
The LD50 values were taken from the estimated values of the plotted regression curve. It is the concentration at which a cell viability of still 50% could be measured.
In addition, the influence of the solvent on the metabolic cell viability was studied for a period of 11 hours. Metabolic cell viability is determined by the ATP value of the cells, which is a measure of viability. […]

Row | Compound | η (kinematic viscosity) [1] | PLGA solubility [2] | further results
1 | CO[C@H]1CO[C@H]2[C@@H]1OC[C@H]2OC [DMI, Dimethyl isosorbide] | 8.16 mPas | 41% | LD50 (mouse): 6.9 g/kg body weight; LD50 (rat): 5.4 g/kg body weight
2 | CCOC(=O)[C@H](C)O [Ethyl l-lactate] | 2.74 mPas | – | –
3 | CC(=O)OCC(COC(C)=O)OC(C)=O [Triacetin] | 18.75 mPas | 35% | –
4 | Alteplase: recombinantly produced t-PA protein | – | – | half-life in plasma [3]: 3 to 6 min
5 | glycerol formal | 14.4 mPas | 33% | tolerance (LD50) higher by a factor compared to tetraglycol (mesothelial cells): 400
6 | tetrahydrofurfuryl alcohol polyethyleneglycol [tetraglycol] | 16.6 mPas | – | –
